Experimental data reported in ChEMBL document CHEMBL1201862, “PubChem BioAssay data set” (2004).
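These data come from cells grown in 96-well plates and exposed to compound for 48 hours at five concentrations. Abbreviation: GI50, concentration required for 50% inhibition of growth.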 Active and inactive are the calls of the source. No stated cut-off is given here; in the data, active = GI50 up to about 1.1 µM and inactive = higher.

What was measured:
Test in all cases: NCI anticancer screen, dose series, 48 h
786-0 = tested on: 786-0
A498 = tested on: A498
A549 = tested on: A549
ACHN = tested on: ACHN
BT-549 = tested on: BT-549
CAKI-1 = tested on: CAKI-1
CCRF-CEM = tested on: CCRF-CEM
COLO 205 = tested on: COLO 205
DU-145 = tested on: DU-145
EKVX = tested on: EKVX
HCC 2998 = tested on: HCC 2998
HCT-116 = tested on: HCT-116
HCT-15 = tested on: HCT-15
HOP-62 = tested on: HOP-62
HOP-92 = tested on: HOP-92
HT-29 = tested on: HT-29
Hs-578T = tested on: Hs-578T
IGROV-1 = tested on: IGROV-1
KM12 = tested on: KM12
LOX IMVI = tested on: LOX IMVI
M14 = tested on: M14
MCF7 = tested on: MCF7
MDA-MB-231 = tested on: MDA-MB-231
MDA-MB-435 = tested on: MDA-MB-435
MDA-N = tested on: MDA-N
MOLT-4 = tested on: MOLT-4
Malme-3M = tested on: Malme-3M
NCI-H226 = tested on: NCI-H226
NCI-H23 = tested on: NCI-H23
NCI-H460 = tested on: NCI-H460
NCI-H522 = tested on: NCI-H522
NCI/ADR-RES = tested on: NCI/ADR-RES
OVCAR-3 = tested on: OVCAR-3
OVCAR-4 = tested on: OVCAR-4
OVCAR-5 = tested on: OVCAR-5
OVCAR-8 = tested on: OVCAR-8
PC-3 = tested on: PC-3
RXF 393 = tested on: RXF 393
SF-268 = tested on: SF-268
SF-295 = tested on: SF-295
SF-539 = tested on: SF-539
SK-MEL-28 = tested on: SK-MEL-28
SK-MEL-2 = tested on: SK-MEL-2
SK-MEL-5 = tested on: SK-MEL-5
SK-OV-3 = tested on: SK-OV-3
SN12C = tested on: SN12C
SNB-19 = tested on: SNB-19
SNB-75 = tested on: SNB-75
SR = tested on: SR
SW-620 = tested on: SW-620
T47D = tested on: T47D
TK-10 = tested on: TK-10
U-251 = tested on: U-251
UACC-257 = tested on: UACC-257
UACC-62 = tested on: UACC-62
UO-31 = tested on: UO-31
HL-60 = tested on: HL-60
K562 = tested on: K562
RPMI-8226 = tested on: RPMI-8226

COc1ccc(NC(=O)C(=O)Cc2nc3ccc(C(=O)c4ccccc4)cc3nc2O)c([N+](=O)[O-])c1
GI50 (786-0): 39.1 µM (inactive)
GI50 (A498): 16.6 µM (inactive)
GI50 (A549): 47.1 µM (inactive)
GI50 (ACHN): 43.6 µM (inactive)
GI50 (BT-549): 26.9 µM (inactive)
GI50 (CAKI-1): 14.9 µM (inactive)
GI50 (CCRF-CEM): 28.2 µM (inactive)
GI50 (COLO 205): 16 µM (inactive)
GI50 (DU-145): 27.5 µM (inactive)
GI50 (EKVX): 28.3 µM (inactive)
GI50 (HCC 2998): 29.8 µM (inactive)
GI50 (HCT-116): 28.1 µM (inactive)
GI50 (HCT-15): 34 µM
GI50 (HOP-62): 34.6 µM (inactive)
GI50 (HOP-92): 10.8 µM (inactive)
GI50 (HT-29): 14.9 µM (inactive)
GI50 (Hs-578T): > 100 µM (inactive)
GI50 (IGROV-1): 17.6 µM (inactive)
GI50 (KM12): 6.93 µM (inactive)
GI50 (LOX IMVI): 25.2 µM (inactive)
GI50 (M14): 35.6 µM (inactive)
GI50 (MCF7): 41.6 µM (inactive)
GI50 (MDA-MB-231): 23 µM (inactive)
GI50 (MDA-MB-435): 12.1 µM (inactive)
GI50 (MDA-N): 23.4 µM (inactive)
GI50 (MOLT-4): 17.6 µM (inactive)
GI50 (Malme-3M): 53.6 µM (inactive)
GI50 (NCI-H226): 11.5 µM (inactive)
GI50 (NCI-H23): 20.5 µM (inactive)
GI50 (NCI-H460): 32.1 µM (inactive)
GI50 (NCI-H522): 12.8 µM (inactive)
GI50 (NCI/ADR-RES): 11.5 µM (inactive)
GI50 (OVCAR-3): 22.5 µM (inactive)
GI50 (OVCAR-4): 43.7 µM (inactive)
GI50 (OVCAR-5): > 100 µM (inactive)
GI50 (OVCAR-8): 18.8 µM (inactive)
GI50 (PC-3): 18.5 µM (inactive)
GI50 (RXF 393): 23.1 µM (inactive)
GI50 (SF-268): 34.8 µM (inactive)
GI50 (SF-295): 31.8 µM (inactive)
GI50 (SF-539): 33 µM (inactive)
GI50 (SK-MEL-28): 25.8 µM (inactive)
GI50 (SK-MEL-2): 55.1 µM (inactive)
GI50 (SK-MEL-5): 22.6 µM (inactive)
GI50 (SK-OV-3): 52 µM (inactive)
GI50 (SN12C): 35.7 µM (inactive)
GI50 (SNB-19): 62.8 µM (inactive)
GI50 (SNB-75): 17.7 µM (inactive)
GI50 (SR): 18.3 µM (inactive)
GI50 (SW-620): 19.1 µM (inactive)
GI50 (T47D): 17.2 µM (inactive)
GI50 (TK-10): 24.9 µM (inactive)
GI50 (U-251): 41.9 µM (inactive)
GI50 (UACC-257): 22.6 µM (inactive)
GI50 (UACC-62): 21.3 µM (inactive)
GI50 (UO-31): 18.2 µM (inactive)

CCOC(=O)c1sc2nc(SC)nc3c2c1N=CN3c1ccccc1Cl
GI50 (786-0): 14.1 µM (inactive)
GI50 (A498): 10.1 µM (inactive)
GI50 (A549): 71.3 µM (inactive)
GI50 (ACHN): 19.4 µM (inactive)
GI50 (BT-549): 26.7 µM (inactive)
GI50 (CAKI-1): 26.2 µM (inactive)
GI50 (CCRF-CEM): 65.3 µM (inactive)
GI50 (COLO 205): > 100 µM (inactive)
GI50 (DU-145): > 100 µM (inactive)
GI50 (EKVX): 55.3 µM (inactive)
GI50 (HCC 2998): > 100 µM (inactive)
GI50 (HCT-116): 40.9 µM (inactive)
GI50 (HCT-15): > 100 µM
GI50 (HL-60): 79.8 µM (inactive)
GI50 (HOP-62): 6.98 µM (inactive)
GI50 (HOP-92): 22.6 µM (inactive)
GI50 (HT-29): > 100 µM (inactive)
GI50 (Hs-578T): 5.58 µM (inactive)
GI50 (IGROV-1): 68.1 µM (inactive)
GI50 (K562): 72.3 µM (inactive)
GI50 (KM12): > 100 µM (inactive)
GI50 (LOX IMVI): > 100 µM (inactive)
GI50 (M14): 62.1 µM (inactive)
GI50 (MCF7): > 100 µM (inactive)
GI50 (MDA-MB-231): 30.9 µM (inactive)
GI50 (MDA-MB-435): > 100 µM (inactive)
GI50 (MDA-N): > 100 µM (inactive)
GI50 (MOLT-4): 61.7 µM (inactive)
GI50 (Malme-3M): 35 µM (inactive)
GI50 (NCI-H226): > 100 µM (inactive)
GI50 (NCI-H23): 92.3 µM (inactive)
GI50 (NCI-H460): > 100 µM (inactive)
GI50 (NCI-H522): 20.5 µM (inactive)
GI50 (NCI/ADR-RES): > 100 µM (inactive)
GI50 (OVCAR-3): 32.6 µM (inactive)
GI50 (OVCAR-4): 17.2 µM (inactive)
GI50 (OVCAR-5): > 100 µM (inactive)
GI50 (OVCAR-8): 52.6 µM (inactive)
GI50 (PC-3): > 100 µM (inactive)
GI50 (RPMI-8226): > 100 µM (inactive)
GI50 (RXF 393): 18.1 µM (inactive)
GI50 (SF-268): 24.1 µM (inactive)
GI50 (SF-295): 32.7 µM (inactive)
GI50 (SK-MEL-28): > 100 µM (inactive)
GI50 (SK-MEL-2): 49.2 µM (inactive)
GI50 (SK-MEL-5): 52 µM (inactive)
GI50 (SK-OV-3): 31.4 µM (inactive)
GI50 (SN12C): > 100 µM (inactive)
GI50 (SNB-19): 29.4 µM (inactive)
GI50 (SNB-75): 14.4 µM (inactive)
GI50 (SR): 26.9 µM (inactive)
GI50 (SW-620): > 100 µM (inactive)
GI50 (T47D): 58.5 µM (inactive)
GI50 (TK-10): > 100 µM (inactive)
GI50 (U-251): 21.3 µM (inactive)
GI50 (UACC-257): > 100 µM (inactive)
GI50 (UACC-62): 33 µM (inactive)
GI50 (UO-31): > 100 µM (inactive)
